Results on 40 compounds are retold here after ChEMBL document CHEMBL1128020, “Synthesis and sar of 2h-1,2,4-benzothiadiazine-1,1-dioxide-3-carboxylic acid derivatives as novel potent glycine antagonists of the nmda receptor-channel complex” (Bioorg Med Chem Lett, 1994).

The IC50 is the midpoint of a concentration-inhibition curve. Low values mean greater potency in that assay, high ones weaker potency in that assay.

One assay addresses Glutamate NMDA receptor. In words: Binding affinity at the glycine binding site of the N-methyl-D-aspartate glutamate receptor in rat cortical membranes using [3H]dichlorokynurenate ([3H]DCKA) as radioligand. Type of assay: cell membranes, Membrane.
The target of a further assay is Glutamate receptor 4 (Homo sapiens, UniProt P48058). In words: Binding affinity against AMPA receptor using [3H]AMPA as the radioligand.
Sequence of Glutamate receptor 4 (P48058 whole entry): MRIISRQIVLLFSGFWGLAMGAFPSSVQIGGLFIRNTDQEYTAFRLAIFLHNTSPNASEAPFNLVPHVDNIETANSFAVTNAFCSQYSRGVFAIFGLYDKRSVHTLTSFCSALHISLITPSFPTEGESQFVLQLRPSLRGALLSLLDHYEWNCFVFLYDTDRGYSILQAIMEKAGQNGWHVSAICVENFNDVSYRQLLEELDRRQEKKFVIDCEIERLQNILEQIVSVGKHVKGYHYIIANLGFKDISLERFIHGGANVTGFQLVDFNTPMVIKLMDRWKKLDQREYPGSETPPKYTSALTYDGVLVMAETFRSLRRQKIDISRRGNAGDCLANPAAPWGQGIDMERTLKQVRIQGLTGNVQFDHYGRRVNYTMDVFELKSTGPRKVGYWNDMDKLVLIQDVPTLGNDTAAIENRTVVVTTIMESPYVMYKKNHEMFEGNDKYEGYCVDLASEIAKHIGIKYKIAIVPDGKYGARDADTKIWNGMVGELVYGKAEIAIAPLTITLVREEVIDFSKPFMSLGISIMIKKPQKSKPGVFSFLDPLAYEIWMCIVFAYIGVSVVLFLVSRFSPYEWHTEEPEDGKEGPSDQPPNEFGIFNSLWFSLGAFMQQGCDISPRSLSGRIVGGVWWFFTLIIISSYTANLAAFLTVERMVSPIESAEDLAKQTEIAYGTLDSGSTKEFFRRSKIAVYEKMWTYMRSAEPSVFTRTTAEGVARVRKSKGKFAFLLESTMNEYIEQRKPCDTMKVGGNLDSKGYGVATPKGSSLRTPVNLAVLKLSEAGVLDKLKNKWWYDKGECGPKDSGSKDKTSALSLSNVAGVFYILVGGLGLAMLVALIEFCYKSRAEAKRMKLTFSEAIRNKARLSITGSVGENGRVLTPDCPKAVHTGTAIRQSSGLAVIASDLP

Regarding `CCOC(=O)C1Nc2cc(Cl)cc(Cl)c2S(=O)(=O)N1Cc1cccc(C)c1` (stereo not given), at Glutamate NMDA receptor, the concentration for half-maximal inhibition (IC50) was determined as 14 nM.

`O=C(O)C1Nc2cc(Cl)cc(Cl)c2S(=O)(=O)N1Cc1cccc(OC(F)(F)F)c1` (stereo not given): on Glutamate NMDA receptor, the IC50 is 20 nM. Still for that read-out and setting: the same measure for `O=C(O)c1cc(O)c2c(Cl)cc(Cl)cc2n1`: 46 nM; for `CCOC(=O)C1Nc2cc(Cl)cc(Cl)c2S(=O)(=O)N1Cc1cccc(OC)c1` (stereo not given): 12 nM. Still for that read-out and setting: the same measure for `O=C(O)C1Nc2cc(Cl)cc(Cl)c2S(=O)(=O)N1CCS(=O)(=O)c1ccccc1` (stereo not given): 70 nM; for `O=C(O)C1Nc2cc(Cl)cc(Cl)c2S(=O)(=O)N1CCCCc1ccccc1` (stereo not given): 77 nM; for `CCOC(=O)C1Nc2cc(Cl)cc(Cl)c2S(=O)(=O)N1CCSc1ccccc1` (stereo not given): 38 nM. On Glutamate NMDA receptor, `CCOC(=O)C1Nc2cc(Cl)cc(Cl)c2S(=O)(=O)N1Cc1ccccc1C` (stereo not given) yielded a concentration for half-maximal inhibition (IC50) of 80 nM. With `CCOC(=O)C1Nc2cc(Cl)cc(Cl)c2S(=O)(=O)N1Cc1ccccc1Cl` (stereo not given), at Glutamate NMDA receptor, the IC50 stood at 48 nM.

As to `CCOC(=O)C1Nc2cc(Cl)cc(Cl)c2S(=O)(=O)N1Cc1cccc(Cl)c1` (stereo not given), the IC50 on Glutamate NMDA receptor is 11 nM. Same read-out and setting: the same measure for `O=C(O)C1Nc2cc(Cl)cc(Cl)c2S(=O)(=O)N1Cc1cccc(F)c1` (stereo not given): 13 nM.

The compound `O=C(O)C1Nc2cc(Cl)cc(Cl)c2S(=O)(=O)N1Cc1cccc(Br)c1` (stereo not given) yielded an IC50 on Glutamate receptor 4 of 38000 nM. `CCOC(=O)C1Nc2cc(Cl)cc(Cl)c2S(=O)(=O)N1Cc1ccc(OC)cc1` (stereo not given) showed an IC50 at Glutamate NMDA receptor of 40 nM.

Compound `CCOC(=O)C1Nc2cc(Cl)cc(Cl)c2S(=O)(=O)N1CC(=O)c1ccccc1` (stereo not given) displayed an IC50 on Glutamate NMDA receptor of 22 nM.

As for `O=C(O)C1Nc2cc(Cl)cc(Cl)c2S(=O)(=O)N1Cc1cccc(I)c1` (stereo not given), the half-inhibitory concentration (IC50) on Glutamate NMDA receptor was determined as 8 nM. At Glutamate NMDA receptor, `CCOC(=O)C1Nc2cc(Cl)cc(Cl)c2S(=O)(=O)N1Cc1ccc(F)cc1` (stereo not given) gave a concentration for half-maximal inhibition (IC50) of 44 nM. `CCOC(=O)C1Nc2cc(Cl)cc(Cl)c2S(=O)(=O)N1Cc1ccc(Cl)cc1` (stereo not given) gave an IC50 on Glutamate NMDA receptor of 20 nM. For `O=C(O)C1Nc2cc(Cl)cc(Cl)c2S(=O)(=O)N1c1ccccc1` (stereo not given), the IC50 at Glutamate NMDA receptor came to 2600 nM. Still for that read-out and setting: the same measure for `O=C(O)C1Nc2cc(Cl)cc(Cl)c2S(=O)(=O)N1Cc1ccc(C(F)(F)F)cc1` (stereo not given): 92 nM; for `CCOC(=O)C1Nc2cc(Cl)cc(Cl)c2S(=O)(=O)N1Cc1ccccc1F` (stereo not given): 26 nM; for `CCOC(=O)C1Nc2cc(Cl)cc(Cl)c2S(=O)(=O)N1Cc1cccc(Oc2ccccc2)c1` (stereo not given): 9 nM. Still for that read-out and setting: the same measure for `CCOC(=O)C1Nc2cc(Cl)cc(Cl)c2S(=O)(=O)N1Cc1cccc([N+](=O)[O-])c1` (stereo not given): 12 nM. Same read-out and setting: under `O=C(O)C1Nc2cc(Cl)cc(Cl)c2S(=O)(=O)N1Cc1ccccc1C(F)(F)F` (stereo not given) stands 100 nM; under `O=C(O)C1Nc2cc(Cl)cc(Cl)c2S(=O)(=O)N1CCCc1ccccc1` (stereo not given), 33 nM. With `O=C(O)CCc1c(C(=O)O)[nH]c2cc(Cl)cc(Cl)c12`, the IC50 on Glutamate NMDA receptor worked out at 50 nM. As to `CCOC(=O)C1Nc2cc(Cl)cc(Cl)c2S(=O)(=O)N1CCOc1ccccc1` (stereo not given), the IC50 on Glutamate NMDA receptor was determined as 41 nM. Consider `CCOC(=O)C1Nc2cc(Cl)cc(Cl)c2S(=O)(=O)N1Cc1ccc(C)cc1` (stereo not given), for which the IC50 on Glutamate NMDA receptor is 45 nM. On the same count and under the same terms, the same measure for `O=C(O)C1Nc2cc(Cl)cc(Cl)c2S(=O)(=O)N1Cc1ccccc1` (stereo not given): 48 nM; for `O=C(O)CN1C(C(=O)O)Nc2cc(Cl)cc(Cl)c2S1(=O)=O` (stereo not given): 9500 nM. Same read-out and setting: under `O=C(O)C1Nc2cc(Cl)cc(Cl)c2S(=O)(=O)N1Cc1cccc(Br)c1` (stereo in doubt; (+)8k) stands 1880 nM. `CCOC(=O)C1Nc2cc(Cl)cc(Cl)c2S(=O)(=O)N1C` (stereo not given): the IC50 at Glutamate NMDA receptor was determined as 400 nM. For the compound `CCOC(=O)C1Nc2cc(Cl)cc(Cl)c2S(=O)(=O)N1Cc1cccc(-c2ccccc2)c1` (stereo not given), the IC50 at Glutamate NMDA receptor came out at 20 nM. Still for that read-out and setting: under `O=C(O)C1Nc2cc(Cl)cc(Cl)c2S(=O)(=O)N1CCCCCc1ccccc1` (stereo not given) stands 36 nM.

With `CCOC(=O)C1Nc2cc(Cl)cc(Cl)c2S(=O)(=O)N1Cc1cccc(C(F)(F)F)c1` (stereo not given), the half-inhibitory concentration (IC50) on Glutamate NMDA receptor was found to be 18 nM. `COc1ccccc1CN1C(C(=O)O)Nc2cc(Cl)cc(Cl)c2S1(=O)=O` (stereo not given) returned an IC50 on Glutamate NMDA receptor of 21 nM. With `O=C(O)C1Nc2cc(Cl)cc(Cl)c2S(=O)(=O)N1Cc1cccc(Br)c1` (single isomer, unassigned; (-)), the IC50 on Glutamate NMDA receptor turned out to be 4 nM. On Glutamate NMDA receptor, `O=C(Nc1ccccc1)N[C@H]1C[C@H](C(=O)O)Nc2cc(Cl)cc(Cl)c21` (single isomer, unassigned) yielded an IC50 of 26 nM. With `CCOC(=O)C1Nc2cc(Cl)cc(Cl)c2S(=O)(=O)N1Cc1cccc(C#N)c1` (stereo not given), the IC50 at Glutamate NMDA receptor is 17 nM.

In turn, `CCOC(=O)C1Nc2cc(Cl)cc(Cl)c2S(=O)(=O)N1Cc1cccc(N)c1` (stereo not given) gave a 50% inhibitory concentration (IC50) at Glutamate NMDA receptor of 29 nM. Still for that read-out and setting: under `O=C(O)C1Nc2cc(Cl)cc(Cl)c2S(=O)(=O)N1CCc1ccccc1` (stereo not given) stands 90 nM.
